Measured values: patent US20250011300A1, “PIPERAZINYLSULFONYLARYL COMPOUNDS FOR TREATMENT OF BACTERIAL INFECTIONS” (Hoffmann-La Roche Inc., priority 2021, published 2025)
Converted amounts (≈) assume the structure as drawn. Like-named read-outs stand apart in the source and are kept apart here.

Key:
[1] = biological target: Escherichia coli LpxH (UDP-2,3-diacylglucosamine hydrolase) (Escherichia coli (strain K12), UniProt P43341); assay: 50% Inhibitory Concentration (IC50) to LpxH, UMP/CMP-Glo Glycosyltransferase Assay kit; format: biochemical
Chain of Escherichia coli LpxH (UDP-2,3-diacylglucosamine hydrolase) (P43341 whole entry): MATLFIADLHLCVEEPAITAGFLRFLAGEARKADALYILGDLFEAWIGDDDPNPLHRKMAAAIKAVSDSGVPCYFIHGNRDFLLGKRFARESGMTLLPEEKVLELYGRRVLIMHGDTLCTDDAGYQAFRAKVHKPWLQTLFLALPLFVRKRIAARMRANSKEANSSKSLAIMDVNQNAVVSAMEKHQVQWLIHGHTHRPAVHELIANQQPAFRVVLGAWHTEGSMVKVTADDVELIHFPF
Experimental: Example 121: 50% Inhibitory Concentration (IC50) to UDP-2,3-diacylglucosamine hydrolase (LpxH)
The inhibitory potency of molecules to UDP-2,3-diacylglucosamine hydrolase (LpxH) was determined using the UMP/CMP-Glo™ Glycosyltransferase Assay kit. LpxH hydrolyzes the pyrophosphate bond of UDP-2,3-diacylglucosamine (UDP-DAG) to yield 2,3-diacylglucosamine 1-phosphate (lipid X) and UMP. The assay kit could quantify the UMP production by convert the UMP to ATP and generate light in a luciferase reaction. The compound's effect on the LpxH activity is detected by measuring the light using a luminometer (Envision).

E. coli (ATCC 25922) = assay: Minimal Inhibitory Concentration (MIC) assay, E. coli; format: cell-based; settings: Escherichia coli, read-out: MIC E. coli ATCC 25922
Experimental: (§1) Example 122: Minimal Inhibitory Concentration Protocol (MIC) Assay
(§2) The in vitro potency of compounds to inhibit E. coli (ATCC 25922) and K. pneumonia (ATCC 43816) growth was assessed by MIC (Minimal Inhibitory Concentration) assay. Samples were prepared from 10 mM DMSO stock solutions. After serial 2-fold dilution in DMSO in a master plate (Greiner, Cat No: 651201), 180 μL sterile distilled water was added to 20 μL each aliquot of the samples. Then 10 μL diluted compounds were transferred into a new assay plate (Costar, 3599).
(§3) The growth medium Cation-Adjusted Mueller Hinton Broth (CAMHB) was prepared by adding the 20 mg per liter CaCl2) and 20 mg per liter MgCl2 into the MHB medium (Jianglai Company, sterilized).
(§4) Vials of each of the test microorganisms were maintained frozen in the vapor phase of a liquid nitrogen freezer. The bacteria E. coli ATCC 25922 (KWIKSTIK, 0335K) and K. pneumonia ATCC 43816 were taken out from liquid nitrogen freezer, then thawed in room temperature, and diluted in the CAMHB medium to achieve a final inoculum of 5×10^5 CFU/mL. 90 μL CAMHB with bacteria was dispensed to the assay plate and pipetted 5 times.
(§5) Then the assay plates were incubated for 20 hours at 35° C. in ambient air. Following incubation, the MIC (μg/mL), the lowest concentration of drug that inhibits visible growth of the microorganism was read and recorded throw the microscope.

[2] = test system: K. pneumonia (ATCC 43816); assay: Minimal Inhibitory Concentration (MIC) assay, K. pneumonia; format: cell-based; settings: Klebsiella pneumoniae, read-out: MIC K. pneumoniae ATCC43816
Experimental: as §1, §2, §3, §4, §5

[3] = ATCC25922, E. coli ATCC 25922, CAMHB, 20 hours at 35° C.
[4] = K. pneumoniae ATCC43816, CAMHB, 20 hours at 35° C.

Row | SMILES | IC50 [1] [µM] | MIC (E. coli (ATCC 25922); [3]) [µg/mL] | MIC [2, 4] [µg/mL] | MIC (E. coli (ATCC 25922); ATCC25922, 20 h) [µg/mL] | MIC ([2]; ATCC43816, 20 h) [µg/mL]
1 | N[C@@H]1CC(=O)N(c2ccc(S(=O)(=O)N3CCN(c4cc(C(F)(F)C5C6COCC65)cc(Cl)n4)CC3)cc2)C1 (stereo partly drawn) [Example 101, (4R)-4-amino-1-[4-[4-[6-chloro-4-[difluoro(3-oxabicyclo[3.1.0]hexan-6-yl)methyl]-2-pyridyl]piperazin-1-yl]sulfonylphenyl]pyrrolidin-2-one] | 0.0968 | 0.44 (≈ 0.775 µM) | 0.89 (≈ 1.57 µM) | – | –
2 | N[C@@H]1CC(=O)N(c2ccc(S(=O)(=O)N3CCN(c4cc(C(F)(F)[C@H]5COCCO5)cc(Cl)n4)CC3)cc2)C1 [Example 103, (4R)-4-amino-1-[4-[4-[6-chloro-4-[[(2R)-1,4-dioxan-2-yl]-difluoro-methyl]-2-pyridyl]piperazin-1-yl]sulfonylphenyl]pyrrolidin-2-one] | 0.0035 | 0.89 (≈ 1.56 µM) | 0.89 (≈ 1.56 µM) | – | –
3 | Cc1cc(C(F)(F)c2ccccc2)nc(N2CCN(S(=O)(=O)c3ccc(N4CC(N)CC4=O)cc3)CC2)n1 (stereo not drawn) [Example 76, 4-Amino-1-[4-[4-[4-[difluoro(phenyl)methyl]-6-methyl-pyrimidin-2-yl]piperazin-1-yl]sulfonylphenyl]pyrrolidin-2-one] | 0.0276 | 0.51 (≈ 0.94 µM) | 1.03 (≈ 1.9 µM) | – | –
4 | NC1CC(=O)N(c2ccc(S(=O)(=O)N3CCN(c4cc(S(=O)(=O)C5CCOCC5)cc(Cl)n4)CC3)cc2)C1 (stereo not drawn) [Example 70, 4-Amino-1-[4-[4-(6-chloro-4-tetrahydropyran-4-ylsulfonyl-2-pyridyl)piperazin-1-yl]sulfonylphenyl]pyrrolidin-2-one] | 0.0479 | 15.5 (≈ 26.6 µM) | 15.5 (≈ 26.6 µM) | – | –
5 | NC1CC(=O)N(c2ccc(S(=O)(=O)N3CCN(c4cc(C(F)(F)c5ccccc5)cc(Cl)n4)CC3)cc2)C1 (stereo not drawn) [Example 73, 4-Amino-1-[4-[4-[6-chloro-4-[difluoro(phenyl)methyl]-2-pyridyl]piperazin-1-yl]sulfonylphenyl]pyrrolidin-2-one] | 0.032 | 0.44 (≈ 0.783 µM) | 0.44 (≈ 0.783 µM) | – | –
6 | N#CC1CN(c2cc(C(F)(F)F)cc(Cl)n2)CCN1S(=O)(=O)c1ccc(N2CC(N)CC2=O)cc1 (stereo not drawn) [Example 67, 1-[4-(4-Amino-2-oxo-pyrrolidin-1-yl)phenyl]sulfonyl-4-[6-chloro-4-(trifluoromethyl)-2-pyridyl]piperazine-2-carbonitrile] | 0.149 | 6.61 (≈ 12.5 µM) | 13.2 (≈ 25 µM) | – | –
7 | NC1CC(=O)N(c2ccc(S(=O)(=O)N3CCN(c4cc(C(F)(F)F)cc(Cl)n4)CC3)cc2)C1 (stereo not drawn) [Example 1, 4-Amino-1-[4-[4-[6-chloro-4-(trifluoromethyl)-2-pyridyl]piperazin-1-yl]sulfonylphenyl]pyrrolidin-2-one] | 0.26 | 1.45 (≈ 2.88 µM) | 1.93 (≈ 3.83 µM) | – | –
8 | O=C1CC(NC2CCNCC2)CN1c1ccc(S(=O)(=O)N2CCN(c3cc(C(F)(F)F)cc(Cl)n3)CC2)cc1 (stereo not drawn) [Example 60, 1-[4-[4-[6-Chloro-4-(trifluoromethyl)-2-pyridyl]piperazin-1-yl]sulfonylphenyl]-4-(4-piperidylamino)pyrrolidin-2-one] | 0.00852 | 1.95 (≈ 3.32 µM) | 3.9 (≈ 6.64 µM) | – | –
9 | O=C1CC(CN2CCNCC2)CN1c1ccc(S(=O)(=O)N2CCN(c3cc(C(F)(F)F)cc(Cl)n3)CC2)cc1 (stereo not drawn) [Example 41, 1-[4-[4-[6-Chloro-4-(trifluoromethyl)-2-pyridyl]piperazin-1-yl]sulfonylphenyl]-4-(piperazin-1-ylmethyl)pyrrolidin-2-one] | 0.0102 | 1.27 (≈ 2.16 µM) | 2.55 (≈ 4.34 µM) | – | –
10 | COc1cc(C(F)(F)c2ccccc2)nc(N2CCN(S(=O)(=O)c3ccc(N4CC(N)CC4=O)cc3)CC2)n1 (stereo not drawn) [Example 82, 4-Amino-1-[4-[4-[4-[difluoro(phenyl)methyl]-6-methoxy-pyrimidin-2-yl]piperazin-1-yl]sulfonylphenyl]pyrrolidin-2-one] | 0.247 | 6.98 (≈ 12.5 µM) | 6.98 (≈ 12.5 µM) | – | –
11 | O=C1CC(NCCO)CN1c1ccc(S(=O)(=O)N2CCN(c3cc(C(F)(F)F)cc(Cl)n3)CC2)cc1 (stereo not drawn) [Example 46, 1-[4-[4-[6-Chloro-4-(trifluoromethyl)-2-pyridyl]piperazin-1-yl]sulfonylphenyl]-4-(2-hydroxyethylamino)pyrrolidin-2-one] | 0.00912 | 1.83 (≈ 3.34 µM) | 3.65 (≈ 6.66 µM) | – | –
12 | NCC1CN(c2ccc(S(=O)(=O)N3CCN(c4cc(C(F)(F)F)cc(Cl)n4)CC3)cc2F)C(=O)O1 (stereo not drawn) [Example 63, 5-(Aminomethyl)-3-[4-[4-[6-chloro-4-(trifluoromethyl)-2-pyridyl]piperazin-1-yl]sulfonyl-2-fluoro-phenyl]oxazolidin-2-one] | 0.204 | 1.83 (≈ 3.4 µM) | 7.3 (≈ 13.6 µM) | – | –
13 | NCC1CN(CC2CC(=O)N(c3ccc(S(=O)(=O)N4CCN(c5cc(C(F)(F)F)cc(Cl)n5)CC4)cc3)C2)C1 (stereo not drawn) [Example 35, 4-[[3-(Aminomethyl)azetidin-1-yl]methyl]-1-[4-[4-[6-chloro-4-(trifluoromethyl)-2-pyridyl]piperazin-1-yl]sulfonylphenyl]pyrrolidin-2-one] | < 0.00341 | 0.64 (≈ 1.09 µM) | 1.27 (≈ 2.16 µM) | – | –
14 | CNCCN1CCC[C@H]2OC(=O)N(c3ccc(S(=O)(=O)N4CCN(c5cc(C(F)(F)F)cc(Cl)n5)CC4)cc3)[C@H]2C1 [Example 26, (3aS,8aR)-3-[4-[4-[6-chloro-4-(trifluoromethyl)-2-pyridyl]piperazin-1-yl]sulfonylphenyl]-5-[2-(methylamino)ethyl]-3a,4,6,7,8,8a-hexahydrooxazolo[4,5-c]azepin-2-one] | 0.0324 | 2.64 (≈ 4.28 µM) | 5.28 (≈ 8.56 µM) | – | –
15 | O=C1O[C@@H]2CNCC[C@@H]2N1c1ccc(S(=O)(=O)N2CCN(c3cc(C(F)(F)F)cc(Cl)n3)CC2)cc1 [Example 17, (3aR,7aS)-1-[4-[4-[6-chloro-4-(trifluoromethyl)-2-pyridyl]piperazin-1-yl]sulfonylphenyl]-3a,4,5,6,7,7a-hexahydrooxazolo[5,4-c]pyridin-2-one] | 0.482 | – | – | 1.82 (≈ 3.33 µM) | 3.64 (≈ 6.67 µM)
16 | CNC1CN(CC2CC(=O)N(c3ccc(S(=O)(=O)N4CCN(c5cc(C(F)(F)F)cc(Cl)n5)CC4)cc3)C2)C1 (stereo not drawn) [Example 43, 1-[4-[4-[6-Chloro-4-(trifluoromethyl)-2-pyridyl]piperazin-1-yl]sulfonylphenyl]-4-[[3-(methylamino)azetidin-1-yl]methyl]pyrrolidin-2-one] | 0.0153 | 3.82 (≈ 6.51 µM) | 5.09 (≈ 8.67 µM) | – | –
17 | O=C1O[C@H]2CCNC[C@H]2N1c1ccc(S(=O)(=O)N2CCN(c3cc(C(F)(F)c4ccccc4)cc(Cl)n3)CC2)cc1 [Example 87, (3aR,7aS)-3-[4-[4-[6-chloro-4-[difluoro(phenyl)methyl]-2-pyridyl]piperazin-1-yl]sulfonylphenyl]-3a,4,5,6,7,7a-hexahydrooxazolo[4,5-c]pyridin-2-one] | 0.0116 | 0.55 (≈ 0.91 µM) | 1.09 (≈ 1.8 µM) | – | –
18 | NC1CC(=O)N(c2ccc(S(=O)(=O)N3CCN(c4cc(C(F)(F)c5ccncc5)cc(Cl)n4)CC3)cc2)C1 (stereo not drawn) [Example 91, 4-Amino-1-[4-[4-[6-chloro-4-[difluoro(4-pyridyl)methyl]-2-pyridyl]piperazin-1-yl]sulfonylphenyl]pyrrolidin-2-one] | 0.0107 | 1.76 (≈ 3.13 µM) | 1.76 (≈ 3.13 µM) | – | –
